Data as given in the NIST ThermoML archive (doi:10.1016/j.jct.2015.08.027).
± gives the expanded uncertainty stated by the source.

Key:
[1] = 101.33 kPa, Liquid, Vibrating tube method
[2] = refractive index (Na D-line) (dimensionless); conditions: 101.33 kPa, Liquid, Standard Abbe refractometry
[3] = refractive index (Na D-line) (dimensionless); wn = mass fraction of the nth substance listed; conditions: 81.5 kPa, Liquid, Standard Abbe refractometry

| Compound | mass density ([1]; 293.2 K) [kg/m3] | mass density ([1]; 298.2 K) [kg/m3] | mass density ([1]; 303.2 K) [kg/m3] | refractive index ([2]; 293.2 K) | refractive index ([2]; 298.2 K) | refractive index ([2]; 303.2 K) | refractive index ([3]; 293.2 K, w2 = 0.0142) | refractive index ([3]; 293.2 K, w2 = 0.993) | refractive index ([3]; 298.2 K, w2 = 0.0161) | refractive index ([3]; 298.2 K, w2 = 0.9924) | refractive index ([3]; 303.2 K, w2 = 0.0164) | refractive index ([3]; 303.2 K, w2 = 0.9914) |
| --- | --- | --- | --- | --- | --- | --- | --- | --- | --- | --- | --- | --- |
| CCCCCCn1cc[n+](C)c1.F[P-](F)(F)(F)(F)F [1-hexyl-3-methylimidazolium hexafluorophosphate] | 1294.91 ± 2.6 | 1290.88 ± 2.6 | 1286.85 ± 2.6 | 1.4176 ± 0.00053 | 1.4164 ± 0.00053 | 1.41515 ± 0.00053 |  |  |  |  |  |  |
| CCCCCCn1cc[n+](C)c1.F[P-](F)(F)(F)(F)F [1-hexyl-3-methylimidazolium hexafluorophosphate] + O |  |  |  |  |  |  | 1.4164 ± 0.001 | 1.3334 ± 0.00077 | 1.41525 ± 0.00099 | 1.3332 ± 0.0008 | 1.4135 ± 0.00098 | 1.33345 ± 0.00086 |
| CC(C)=O [acetone] | 790.66 ± 1.6 | 784.4 ± 1.6 | 778.7 ± 1.6 | 1.3588 ± 0.00051 | 1.35575 ± 0.00051 | 1.35265 ± 0.00051 |  |  |  |  |  |  |
| O [water] |  |  |  | 1.33305 ± 0.00049 | 1.3325 ± 0.00049 | 1.33195 ± 0.00049 |  |  |  |  |  |  |
